# Test results as given in US11970731B2, “Enhancement of nucleic acid polymerization by aromatic compounds” (priority 2018, dated 2024).
# Tests used:
# [1] = target: T1, C4760 DNA polymerase (a variant of DPO4) (Saccharolobus solfataricus, UniProt Q97W02, A155G/A42V/D156R/D292Y/D294N/E291S/E324K/E325K/E327K/E63R/E79L/G187P/G299W/I153V/I189F/I248T/I295S/K152A/K317Q/K321Q/K56Y/K78D/L293W/M76W/N188Y/P184Q/Q82W/Q83G/R300S/S297Y/S86E/T290K/T301W/V289W/V296Q); experiment: Primer extension assays using a 411mer amplicon template; type: biochemical, Sulfolobus solfataricus; details: comparator compound 14 (lane 1)
# T1 construct: made in house
# Protocol: PEM activity of compound 15 was tested in primer extension assays using a 411mer amplicon template. Primer extension reactions included the following reagents: 50 mM TrisCl, 200 mM NH4OAc, 20% PEG8K, 5% NMS, 3 nmol PP-60.20, 2 mM MnCl2, 2 μg Kod single-strand binding protein (SSB), 1 M urea, 250 pmol each XNTP, 1 pmol template, 1 pmol oligonucleotide primer, 1.2 μg purified recombinant C4760 DNA polymerase (a variant of DPO4, see SEQ ID NO:2), and 2 (lane 2) or 3 (lane 3) mM PEM. 10 μL primer extension reactions were run for 20 minutes at 37° C. and reaction products were analyzed by gel electrophoresis. A representative gel showing primer extension products is presented in FIG. 12 (the position of a 277mer is indicated by the arrow). […] Remarkably, the polymerase is completely dependent upon the addition of PEM to the reaction in order to be capable of synthesizing these lengthy Xpandomer products. Even longer extension products may be obtained by optimizing various reaction parameters, e.g., extension time and/or concentrations of various additives.
# PEM activity of compound 19, was tested in primer extension assays using the 411 mer amplicon template. […] 10 μL primer extension reactions were run for 30 minutes at 37° C. and reaction products were analyzed by gel electrophoresis. […]
# DNA polymerase [2] = experiment: Sequencing by Expansion (SBX) of primer extension products, nanopore sequence reads aligned to template; type: biochemical
# Protocol: To investigate the accuracy of PEM-dependent enhancement of XNTP polymerization, primer extension products were sequenced using the SBX protocol. Briefly, the constrained Xpandomer products of XNTP polymerization are cleaved to generate linearized Xpandomers. This is accomplished by first quenching the extension reaction with a solution containing 100 mM EDTA, 2 mM THPTA, and 2% Tween-20. Then the sample is subjected to amine modification with a solution of 1 M NaHCO3 and 1 M succinic anhydride in DMF. Cleavage of the phosphoramidate bonds is carried out with 37% HCl and linearized Xpandomers are purified with QIAquick columns (QIAGEN, Inc.).
# For sequencing, protein nanopores are prepared by inserting α-hemolysin into a DPhPE/hexadecane bilayer member in buffer B1, containing 2 M NH4Cl and 100 mM HEPES, pH 7.4. The cis well is perfused with buffer B2, containing 0.4 M NH4Cl, 0.6 M GuCl, and 100 mM HEPES, pH 7.4. The Xpandomer sample is heated to 70° C. for 2 minutes, cooled completely, then a 2 μL sample is added to the cis well. A voltage pulse of 90 mV/390 mV/10 μs is then applied and data is acquired via Labview acquisition software.
# Sequence data is analyzed by histogram display of the population of sequence reads from a single SBX reaction. […] Representative histograms of SBX sequencing of a 45mer template are presented in FIG. 6A (no additive control) and FIG. 6B (SBX in the presence of PEM compound 1).
# C4552 DNA polymerase = target: T2, C4552 DNA polymerase (Saccharolobus solfataricus, UniProt Q97W02, A155G/A42V/D156R/D292Y/D294N/E291S/E324K/E325K/E327K/E79L/G187P/G299W/I153V/I189F/I248T/I295S/K152A/K317Q/K321Q/K56Y/K78D/L293W/M76W/N188Y/P184Q/Q82W/Q83G/R300S/S297Y/S86E/T290K/T301W/V289W/V296Q); experiment: Primer extension assays using three 100mer templates derived from HIV1, 2 and 3 genomes; type: biochemical, Sulfolobus solfataricus; details: 0.5 mM PEM; HIV1, HIV2, HIV3 100mer templates; 30 minutes at 23° C.; FIG. 9
# T2 construct: made in house
# Protocol: PEM activity of compounds 9-11 was tested in primer extension assays using three 100mer templates, derived from the HIV1, 2, and 3 genomes. Primer extension reactions included the following reagents: 75 mM TrisCl, pH 8.44, 175 mM NH4OAc, 20% PEG8K, 5% NMS, 0.8 nmol PP-60.20, 0.6 mM MnCl2, 2.3 μg Tth single-strand binding protein (SSB), 0.5 M or 1 M urea, 200 pmol each XNTP, 1.1 pmol template, 1 pmol oligonucleotide primer, 1.2 μg purified recombinant C4552 DNA polymerase, and 0.5 mM PEM. 10 μL primer extension reactions were run for 30 minutes at 23° C. and reaction products were analyzed by gel electrophoresis.
# [3] = target: T3, C4552 (variant of DPO4 DNA polymerase) (Saccharolobus solfataricus, UniProt Q97W02, A155G/A42V/D156R/D292Y/D294N/E291S/E324K/E325K/E327K/E79L/G187P/G299W/I153V/I189F/I248T/I295S/K152A/K317Q/K321Q/K56Y/K78D/L293W/M76W/N188Y/P184Q/Q82W/Q83G/R300S/S297Y/S86E/T290K/T301W/V289W/V296Q); experiment: XNTP polymerization reactions on longer templates (88, 127, 227, 277 nucleotides); type: biochemical, Sulfolobus solfataricus; details: 1 mM compound; templates of 88, 127, 227 and 277 nucleotides; 3 or 4 nmol PP-60.20; 1-2 hr at 23° C.; FIG. 8
# T3 construct: made in house
# Protocol: Following the success of accurately replicating templates of up to 80 nucleotides in length into Xpandomers, XNTP polymerization reactions were conducted using four longer templates, consisting of 88, 127, 227, and 277 nucleotides in length. A variant of DPO4 DNA polymerase, referred to as C4552 (SEQ ID NO:1), was used in these polymerization reactions and reaction conditions were optimized for C4552 activity in the presence of PEM compound 1. Other suitable DPO4 polymerase variants include, but are not limited to, those of SEQ ID NO:2, SEQ ID NO:3, SEQ ID NO:4, and SEQ ID NO:5. In addition to 1 mM compound 1, reaction additives included 1 mM urea and 2.75 μg single-strand binding protein (Eco SSB). Extension reactions were carried out with 0.85 pmol template, 0.5 pmol oligonucleotide primer, and 1 nmol each XNTP in a final volume of 10 μL. Reactions were run in buffer composed of 50 mM TrisCl, pH 8.84, 200 mM NH4OAc, and 20% PEG8K supplemented with 5% NMS, polyphosphate PP-60.20 in amounts of 3 or 4 nmol, and 2 mM MnCl2. 1.2 μg purified recombinant DNA polymerase protein was used in each extension reaction and reactions were run for 1-2 hr at 23° C. […] Lanes 1-5 and 6-10 represent identical extension reactions with the exception of the amount of PP-60.20 additive, which was 3 nmol in lanes 1-5 and 4 nmol in lanes 6-10.
# DNA polymerase [4] = experiment: Screen of PEMs for enhancement of XNTP polymerization (primer extension, gel electrophoresis); type: biochemical; details: FIG. 4 gel; 45 mer template; without PEM additive up to only around 14 XNTPs
# Protocol: A representative primer extension reaction may include the following reagents: 2 pmol primer, 2.2 pmol 45 mer oligonucleotide template, 50 pmol of each XNTP (XATP, XCTP, XGTP, and XTTP), 50 mM Tris HCl, pH 6.79, 200 mM NaCl, 20% PEG, 5% NMS, 0.5 nmol polyphosphate 60.19, 0.3 mM MnCl2, and 0.6 μg of purified recombinant DNA polymerase protein. Reactions may be run for 1 hr at 23° C. Reaction products (i.e., constrained Xpandomers) are treated to cleave the phosphoramidate bonds, thereby generating linearized Xpandomers. Reaction products may be analyzed using gel electrophoresis on 4-12% acrylamide gels to resolve and visualize Xpandomer products of different lengths. For the PEM screen described above, PEMs were typically tested in the micro to millimolar range.
# Again, this PEM activity is specific for compound 2, as other unrelated aromatic compounds had no effect (lanes 2-7).
# T1 sequence (Q97W02 other isoform, or with tags, fused parts or gaps with the stated changes): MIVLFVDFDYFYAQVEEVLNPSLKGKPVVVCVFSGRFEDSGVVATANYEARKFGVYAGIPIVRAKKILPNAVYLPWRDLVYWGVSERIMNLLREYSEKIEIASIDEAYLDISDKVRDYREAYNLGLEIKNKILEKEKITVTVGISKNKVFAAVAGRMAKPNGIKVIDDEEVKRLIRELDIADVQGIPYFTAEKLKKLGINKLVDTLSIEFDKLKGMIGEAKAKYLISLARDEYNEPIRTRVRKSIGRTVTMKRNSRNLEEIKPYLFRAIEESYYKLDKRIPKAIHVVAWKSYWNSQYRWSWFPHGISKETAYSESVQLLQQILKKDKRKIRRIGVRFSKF
# T2 sequence (Q97W02 other isoform, or with tags, fused parts or gaps with the stated changes): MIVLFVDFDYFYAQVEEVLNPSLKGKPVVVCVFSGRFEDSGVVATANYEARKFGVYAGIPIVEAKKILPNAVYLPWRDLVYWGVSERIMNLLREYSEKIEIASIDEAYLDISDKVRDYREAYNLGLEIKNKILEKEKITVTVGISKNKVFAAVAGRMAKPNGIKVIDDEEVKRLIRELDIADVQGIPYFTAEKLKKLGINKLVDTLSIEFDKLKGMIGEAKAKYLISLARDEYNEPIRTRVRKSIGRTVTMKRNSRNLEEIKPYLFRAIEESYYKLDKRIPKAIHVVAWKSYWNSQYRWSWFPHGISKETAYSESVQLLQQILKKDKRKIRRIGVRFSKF
smiles,measurement,setting,value
"NC(=O)c1cc(-c2cn(-c3ccc(C(=O)O)c(O)c3)nn2)nc(-c2cn(-c3ccc(C(=O)O)c(O)c3)nn2)c1 [Compound 19, 4,4′-((4-carbamoylpyridine-2,6-diyl)bis(1H-1,2,3-triazole-4,1-diyl))bis(2-hydroxybenzoic acid)]",PEM activity: polymerization of XNTPs into Xpandomer copies of the 411 mer template,"[1]; 0.5, 1, or 1.5 mM PEM, 0.5 pmol template, 30 minutes at 37° C., FIG. 14","enables polymerization of XNTPs into lengthy Xpandomer copies of the 411 mer template, albeit in a manner less efficient than that of compound 14"
"CCOC(=O)c1cc(-c2cn(-c3ccc(O)c(C(=O)O)c3)nn2)nc(-c2cn(-c3ccc(O)c(C(=O)O)c3)nn2)c1 [Compound 15, 5,5′-((4-(ethoxycarbonyl)pyridine-2,6-diyl)bis(1H-1,2,3-triazole-4,1-diyl))bis(2-hydroxybenzoic acid)]",PEM activity: polymerization of XNTPs into Xpandomer copies of the 411 mer template,"[1]; 2 or 3 mM PEM, 1 pmol template, 20 minutes at 37° C., FIG. 12",enables polymerization of XNTPs into lengthy Xpandomer copies of the 411 mer template in a manner comparable to that of compound 14
"O=C(O)c1ccc(-n2cc(-c3cccc(-c4cn(-c5ccc(C(=O)O)c(O)c5)nn4)n3)nn2)cc1O [Compound 1, 4,4′-(pyridine-2,6-diylbis(1H-1,2,3-triazole-4,1-diyl))bis(2-hydroxybenzoic acid)]",accuracy of SBX sequence reads,"DNA polymerase [2]; 45mer template, FIG. 6B, without additive reads not accurate past around base 18",increased the accuracy of the sequence reads across the entire length of the 45 mer template
same,accuracy of SBX sequence reads,"DNA polymerase [2]; 60 mer template, FIG. 7A",enabled accurate sequence reads completely to the end of each of these longer templates
same,accuracy of SBX sequence reads,"DNA polymerase [2]; 80 mer template, FIG. 7B",enabled accurate sequence reads completely to the end of each of these longer templates
same,PEM activity: polymerization of XNTPs into Xpandomer copies of 100 mer templates,C4552 DNA polymerase,enables polymerization of XNTPs into full length Xpandomer copies of the three different 100 mer templates
same,polymerization of XNTPs into Xpandomer copies of longer templates,[3],generate complete Xpandomer copies of each longer template
same,DNA polymerase-mediated primer extension with XNTPs (length of extension products),DNA polymerase [4],enables the polymerase to synthesize considerably longer extension products
